How the values were obtained:
mRNA for gamma-globin [1] = assay: Quantitative RT-PCR of mRNA for gamma-globin in K562 cells; assay type: cell-based, human; settings: 20 nM, 6 days of induction, control = 1
Description: (§1) The level of differentiation was evaluated by analysing the positive reaction of the cells to benzidine (3). […] The production of haemoglobin was evaluated by electrophoresis on cellulose acetate and by staining the gel with a solution based on benzidine/H2O2 (3). […] The expression of genes coding for gamma-globins was evaluated by quantitative RT-PCR (reverse transcriptase PCR) (3).

human cell line K562 [2] = assay: Erythroid differentiation of K562 cells (benzidine-positive cells); settings: 20 nM, mean ± SD of 6 experiments, control 4.1%
Description: as §1

mRNA for gamma-globin [3] = assay: Quantitative RT-PCR of mRNA for gamma-globin in human erythroid precursors isolated from peripheral blood (two-stage culture of Fibach et al.); assay type: cell-based; settings: for mRNA for gamma-globin (increase compared with untreated control erythroid precursors): rapamycin 3 μM, hydroxyurea 120 μM, control = 1
Description: In order to check whether rapamycin was capable, in addition to inducing K562 cell differentiation, of stimulating the production of mRNA for gamma-globin in human erythroid precursors isolated from peripheral blood, the technique published by Fibach et al. (19, 20) was used. This technique provides for two stages: in the first stage, the cells isolated from peripheral blood of a subject who is healthy or suffering from a haemopoietic pathology, such as sickle cell anaemia or beta-thalassaemia, are sown in a culture medium to which 10% of conditioned medium derived from the vesicle carcinoma cell line 5637 has been added. The second stage consists in cultivating the isolated cells in a suitable culture medium, supplemented by the erythropoietin hormone, 30% foetal bovine serum, 2-mercaptoethanol, albumin, glutamine and desamethasone in order to permit the proliferation and maturing of stem cells of the erythroid type. In this stage the cells can be treated with potential HbF inducers.

human cell cultures = assay: Cytotoxic effect in human cell cultures; assay type: cell-based; settings: compared with hydroxyurea
Description: The activity of rapamycin as an inducer of erythroid cell differentiation and the production of mRNA for gamma-globin was evaluated in human cell cultures. The results of this study are illustrated in the Tables given in the section relating to the Examples.

human cell line K562 [4] = assay: Haemoglobin production in K562 cells by electrophoresis on cellulose acetate and benzidine/H2O2 staining; assay type: cell-based; settings: K562 cells treated with rapamycin
Description: as §1

In the case of CO[C@H]1C[C@@H]2CC[C@@H](C)[C@@](O)(O2)C(=O)C(=O)N2CCCC[C@H]2C(=O)O[C@H]([C@H](C)C[C@@H]2CC[C@@H](O)[C@H](OC)C2)CC(=O)[C@H](C)/C=C(\C)[C@@H](O)[C@@H](OC)C(=O)[C@H](C)C[C@H](C)/C=C/C=C/C=C/1C [Rapamycin, rapamycin], the “mRNA for gamma-globin (increase compared with untreated control K562 cells)” value (mRNA for gamma-globin [1]) is reported as 2.4, the “Erythroid differentiation = percentage of K562 cells that react positively to benzidine” value (human cell line K562 [2]) is reported as 45.5 ± 5.8% and the “Erythroid differentiation = percentage of K562 cells that react positively to benzidine” value (human cell line K562 [2]; listed as rapamycin) is reported as 40-45%. The “Increase in the production of mRNA for gamma-globin compared with the same untreated cells” value (mRNA for gamma-globin [3]) was 3.75 times, the “mRNA for gamma-globin (increase compared with untreated control erythroid precursors)” value (mRNA for gamma-globin [3]) was 3.73 and the Cytotoxic effect (human cell cultures) was “much lower than that of hydroxyurea”. The Chief haemoglobin produced (human cell line K562 [4]) was “Hb Portland (alpha2gamma2)”.

NC(=O)NO [Hydroxyurea, hydroxyurea] was tested, and the “mRNA for gamma-globin (increase compared with untreated control erythroid precursors)” value (mRNA for gamma-globin [3]) was 2.25.
